This note sets out measurements from patent publication US6683084B1, “Use of 2-amino purine derivatives for the treatment and prophylaxis of human herpes virus 6 infections” (Novartis International Pharmaceutical Ltd., priority 1993, dated 2004).

SMILES strings stand for the structures.

In the assay the test system is HHV-6 strain 7.29. The experiment in a line: Evaluation of PCV against HHV-6 in human cord blood cells (% infected cells by immunofluorescence). In kind it is cell-based, human herpesvirus 6. The method, then:
An assay method involving the inhibition of a cytopathic effect in human cord blood cells is conducted at a dose range of 0.01 μM-100 μM. The general procedure is as described in Chapter 23 of ‘Human Herpesvirus; Epidemiology, Molecular Biology and Clinical Pathology—Conference Proceedings, Ablashi D. V. (Ed).
^aDilutions of the compounds were added 1 hr after viral inoculation of human cord blood. The % infected cells was measured by anti-complement immunofluorescence (ACIF). All numbers are averages of results of cord blood from 3 donors and triplicate readings were performed on each sample. Each reading represents actual counting of 3 fields.
Human mononuclear cells were isolated from umbilical cord blood and inoculated in triplicate with the test virus. One hour later, duplicate dilutions of the compound were added, resulting in 0, 5, 10, 50, or 100 μM final concentrations. After 3-6 days, cellls were removed and tested for the presence of virus by indirect immunofluorescence (IFA) using type specific monoclonal antibodies. Three fields of 100 cells each were read from each sample.

For `Nc1nc2c(ncn2CCC(CO)CO)c(=O)[nH]1` [PCV, penciclovir], the inhibition at 5 µM (Human betaherpesvirus 6, 144 h, PCV 5 μM, Day 6, read-out: % Inhib Day 6) was -5%. For the same compound, the inhibition at 10 µM (Human betaherpesvirus 6, 144 h, PCV 10 μM, Day 6, read-out: % Inhib Day 6) was -7%. Further, the inhibition at 50 µM (Human betaherpesvirus 6, 144 h, PCV 50 μM, Day 6, read-out: % Inhib Day 6) is 12%. Moreover, the inhibition at 100 µM (Human betaherpesvirus 6, 144 h, PCV 100 μM, Day 6, read-out: % Inhib Day 6) came to 29%. In addition, the “% Inf Day 4” value (PCV 5 μM, Day 4, compound added 1 hr after viral inoculation) amounted to 19% and the “% Inf Day 4” value (PCV 10 μM, Day 4) was 20%. Also, the “% Inf Day 6” value reads like this: (PCV 5 μM) 42%; (PCV 10 μM) 43%; (PCV 50 μM) 35%; (PCV 100 μM) 38%.
